Assay [1] is filed under the species Homo sapiens. The assay can be described thus: Ratio of IC50 for AchE to IC50 for BuChE.
The next assay has as its target Acetylcholinesterase (Homo sapiens, UniProt P22303). The assay can be described thus: Inhibition of human erythrocyte AchE.
The species named for assay [2] is Homo sapiens. As to the kind of experiment: Ratio of IC50 for BuChE to IC50 for AchE.
The target in another assay is Cholinesterase (Homo sapiens, UniProt P06276). The assay can be described thus: Inhibition of human serum BuChE.
Chain of Cholinesterase (P06276 whole entry): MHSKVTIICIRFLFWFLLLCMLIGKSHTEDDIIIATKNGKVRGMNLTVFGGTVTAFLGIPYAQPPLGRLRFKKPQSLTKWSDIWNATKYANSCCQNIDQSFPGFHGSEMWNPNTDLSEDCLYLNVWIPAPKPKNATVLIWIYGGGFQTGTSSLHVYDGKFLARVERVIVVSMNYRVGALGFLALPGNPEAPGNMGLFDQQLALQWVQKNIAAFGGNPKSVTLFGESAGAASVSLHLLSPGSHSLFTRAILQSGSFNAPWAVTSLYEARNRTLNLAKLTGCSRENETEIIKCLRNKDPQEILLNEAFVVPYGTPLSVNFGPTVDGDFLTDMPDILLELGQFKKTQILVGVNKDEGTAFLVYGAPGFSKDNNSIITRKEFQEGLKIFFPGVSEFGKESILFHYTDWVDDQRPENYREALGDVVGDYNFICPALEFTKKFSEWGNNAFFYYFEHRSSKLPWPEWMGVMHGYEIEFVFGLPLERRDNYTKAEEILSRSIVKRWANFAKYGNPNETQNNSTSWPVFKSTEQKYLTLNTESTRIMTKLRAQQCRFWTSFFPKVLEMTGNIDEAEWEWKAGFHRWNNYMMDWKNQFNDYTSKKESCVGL

SMILES strings stand for the structures.

The source of these data is ChEMBL document CHEMBL1144481, “Cholinesterase inhibitors: SAR and enzyme inhibitory activity of 3-[omega-(benzylmethylamino)alkoxy]xanthen-9-ones” (Bioorg Med Chem, 2007).

As usually defined, the IC50 is the midpoint of a concentration-inhibition curve. High values mean weaker potency, low ones greater potency.

Chain of Acetylcholinesterase (P22303 whole entry): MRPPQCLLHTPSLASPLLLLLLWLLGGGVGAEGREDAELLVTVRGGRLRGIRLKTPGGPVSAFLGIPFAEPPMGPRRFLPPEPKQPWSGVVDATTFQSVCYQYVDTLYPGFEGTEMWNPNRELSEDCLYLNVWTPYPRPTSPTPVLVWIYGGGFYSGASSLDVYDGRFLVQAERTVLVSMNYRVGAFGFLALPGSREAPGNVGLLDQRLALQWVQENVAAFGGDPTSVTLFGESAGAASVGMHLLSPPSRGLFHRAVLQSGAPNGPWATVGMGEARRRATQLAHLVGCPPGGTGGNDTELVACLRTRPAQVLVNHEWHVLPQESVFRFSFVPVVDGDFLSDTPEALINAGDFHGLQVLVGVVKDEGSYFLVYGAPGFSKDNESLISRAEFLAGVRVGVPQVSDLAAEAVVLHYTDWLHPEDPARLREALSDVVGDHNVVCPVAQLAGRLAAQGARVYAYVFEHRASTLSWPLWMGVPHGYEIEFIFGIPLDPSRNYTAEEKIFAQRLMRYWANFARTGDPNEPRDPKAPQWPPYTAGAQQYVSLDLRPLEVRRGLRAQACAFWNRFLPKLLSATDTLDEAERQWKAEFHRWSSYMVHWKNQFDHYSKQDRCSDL

Regarding `CN(CCCCCCCCCCCOc1ccc2c(=O)c3ccccc3oc2c1)Cc1ccccc1`, the Ratio IC50 in the assay listed under Homo sapiens [1] amounted to 5220.
Consider `COc1ccc(OC)c(CN(C)CCCCCCCOc2ccc3c(=O)c4ccccc4oc3c2)c1`, for which the results for the IC50 against Acetylcholinesterase and against Cholinesterase were 127 µM and 1.27 µM, respectively. In addition, the values for the Ratio IC50 in the assay filed under Homo sapiens [2] and in the assay filed under Homo sapiens [1] were 0.01 and 100, respectively.
In the case of `COc1cccc(CN(C)CCCCCCCOc2ccc3c(=O)c4ccccc4oc3c2)c1`, the IC50 came out at 40 µM against Acetylcholinesterase and 1.85 µM on Cholinesterase. Further, the figures for the Ratio IC50 in the assay listed under Homo sapiens [2] and in the assay listed under Homo sapiens [1] were 0.05 and 21.6, respectively.
Turning to `COc1cc2oc3cc(OCCCCCCCN(C)Cc4ccccc4)ccc3c(=O)c2cc1OC`, the IC50 against Acetylcholinesterase is 2.32 µM; against Cholinesterase, 3.08 µM. Also, the figures for the Ratio IC50 in the assay listed under Homo sapiens [2] and in the assay listed under Homo sapiens [1] were 1.33 and 0.75, respectively.
In the case of `CN(CCCOc1ccc2c(=O)c3ccccc3oc2c1)Cc1ccccc1`, the values for the IC50 against Acetylcholinesterase and at Cholinesterase were 2.68 µM and 8.33 µM, respectively. In addition, the Ratio IC50 in the assay listed under Homo sapiens [2] was found to be 3.11; in the assay listed under Homo sapiens [1], 0.32.
For the compound `Cc1ccccc1CN(C)CCCCCCCOc1ccc2c(=O)c3ccccc3oc2c1`, the IC50 at Acetylcholinesterase was found to be 565 µM; on Cholinesterase it was 29.5 µM. In addition, the Ratio IC50 in the assay listed under Homo sapiens [2] stood at 0.05; in the assay listed under Homo sapiens [1] it was 19.1.
For the compound `CNC(=O)Oc1cccc(CN(C)CCCCCCCOc2ccc3c(=O)c4ccccc4oc3c2)c1`, the Ratio IC50 in the assay listed under Homo sapiens [2] stood at 51.6; in the assay listed under Homo sapiens [1], 0.019.
Regarding `CN(CCCCCCCCCCOc1ccc2c(=O)c3ccccc3oc2c1)Cc1ccccc1`, in the assay listed under Homo sapiens [1], the Ratio IC50 was 3880.
Regarding `CN(CCCCCCCOc1ccc2c(=O)c3ccccc3oc2c1)Cc1ccccc1`, the results for the IC50 against Acetylcholinesterase and on Cholinesterase were 2.82 µM and 0.8 µM, respectively. The figures for the Ratio IC50 in the assay filed under Homo sapiens [2] and in the assay listed under Homo sapiens [1] were 0.28 and 3.52, respectively.
For `COc1ccc(CN(C)CCCCCCCOc2ccc3c(=O)c4ccccc4oc3c2)cc1`, in that order: 360 µM, 2.11 µM, 0.006 and 171.
Turning to `COc1ccccc1CN(C)CCCCCCCOc1ccc2c(=O)c3ccccc3oc2c1`, the IC50 turned out to be 2.18 µM against Acetylcholinesterase and 0.93 µM against Cholinesterase. Also, the Ratio IC50 was determined as 0.43 in the assay filed under Homo sapiens [2] and 2.34 in the assay listed under Homo sapiens [1].
Regarding `CN(CCCCCCCOc1ccc2c(=O)c3ccccc3oc2c1)Cc1ccc(Cl)cc1`, the IC50 was 1050 µM against Acetylcholinesterase and 127 µM against Cholinesterase. For the same compound, the Ratio IC50 in the assay filed under Homo sapiens [2] was 0.12; in the assay listed under Homo sapiens [1], 8.26.
For `CN(CCCCCCCOc1ccc2c(=O)c3ccccc3oc2c1)Cc1cccc(Cl)c1`, the IC50 came out at 594 µM against Acetylcholinesterase and 63.8 µM on Cholinesterase. Moreover, the figures for the Ratio IC50 in the assay listed under Homo sapiens [2] and in the assay filed under Homo sapiens [1] were 0.1 and 9.3, respectively.
On to `CN(CCCCCOc1ccc2c(=O)c3ccccc3oc2c1)Cc1ccccc1`, for which the figures for the IC50 against Acetylcholinesterase and against Cholinesterase were 7.78 µM and 2.49 µM, respectively. Besides, the Ratio IC50 in the assay listed under Homo sapiens [2] was found to be 0.32; in the assay filed under Homo sapiens [1] it was 3.12.
Regarding `CCN(CCCCCCCOc1ccc2c(=O)c3ccccc3oc2c1)Cc1ccccc1OC`, the IC50 against Acetylcholinesterase turned out to be 3.15 µM; at Cholinesterase, 0.32 µM. In addition, the Ratio IC50 in the assay listed under Homo sapiens [2] amounted to 0.1; in the assay filed under Homo sapiens [1], 9.8.
With `CN(CCCCCCCCCOc1ccc2c(=O)c3ccccc3oc2c1)Cc1ccccc1`, in the assay listed under Homo sapiens [1], the Ratio IC50 came out at 1520.
Consider `CN(CCCCCCCCOc1ccc2c(=O)c3ccccc3oc2c1)Cc1ccccc1`, for which the IC50 on Acetylcholinesterase is 10.3 µM; against Cholinesterase it was 0.08 µM. The Ratio IC50 in the assay filed under Homo sapiens [2] amounted to 0.008; in the assay filed under Homo sapiens [1] it was 129.
Turning to `CN(CCCCOc1ccc2c(=O)c3ccccc3oc2c1)Cc1ccccc1`, the IC50 stood at 6.25 µM against Acetylcholinesterase and 2.65 µM at Cholinesterase. Besides, the Ratio IC50 in the assay listed under Homo sapiens [2] amounted to 0.42; in the assay filed under Homo sapiens [1], 2.36.
For `COc1ccccc1CN(C)CCCOc1ccc2c(=O)c3ccccc3oc2c1`, the IC50 stood at 3.4 µM against Acetylcholinesterase and 1.91 µM against Cholinesterase. The figures for the Ratio IC50 in the assay listed under Homo sapiens [2] and in the assay filed under Homo sapiens [1] were 0.56 and 1.78, respectively.
For `CN(CCCCCCCOc1ccc2c(=O)c3ccccc3oc2c1)Cc1ccccc1[N+](=O)[O-]` the same measures were 413 µM, 14 µM, 0.03 and 29.5.
Consider `CN(CCCCCCCCCCCCOc1ccc2c(=O)c3ccccc3oc2c1)Cc1ccccc1`, for which, in the assay filed under Homo sapiens [1], the Ratio IC50 came out at 6050.
As to `COc1ccc(CN(C)CCCCCCCOc2ccc3c(=O)c4ccccc4oc3c2)c(OC)c1OC`, the IC50 came to 155 µM on Acetylcholinesterase and 1 µM against Cholinesterase. Moreover, the Ratio IC50 in the assay filed under Homo sapiens [2] is 0.006; in the assay listed under Homo sapiens [1], 155.
`COc1ccc2c(=O)c3ccc(OCCCCCCCN(C)Cc4ccccc4)cc3oc2c1`: the IC50 on Acetylcholinesterase stood at 7.84 µM; on Cholinesterase, 46.1 µM. Besides, the Ratio IC50 in the assay listed under Homo sapiens [2] came to 5.9; in the assay filed under Homo sapiens [1], 0.17.
On to `CN(CCCCCCCOc1ccc2c(=O)c3ccccc3oc2c1)Cc1ccccc1Cl`, for which the results for the IC50 against Acetylcholinesterase and on Cholinesterase were 433 µM and 269 µM, respectively. The Ratio IC50 in the assay filed under Homo sapiens [2] was 0.62; in the assay filed under Homo sapiens [1], 1.6.
For `COc1cccc(CN(C)CCCCCCCOc2ccc3c(=O)c4ccccc4oc3c2)c1OC`, in that order: 138 µM, 2.01 µM, 0.014 and 68.7.
Turning to `CN(CCCCCCOc1ccc2c(=O)c3ccccc3oc2c1)Cc1ccccc1`, the IC50 worked out at 2.89 µM on Acetylcholinesterase and 1.43 µM against Cholinesterase. In addition, the Ratio IC50 was 0.49 in the assay listed under Homo sapiens [2] and 2.02 in the assay filed under Homo sapiens [1].
